Data on 48 compounds can be found in ChEMBL document CHEMBL1201862, “PubChem BioAssay data set” (2004).

The target of data set [1] is Cytochrome P450 2C19 (Homo sapiens, UniProt P33261). Nature of the data set: Cytochrome panel assay with activity outcomes. Panel member name: p450-cyp2c19 Compounds with AC50 equal or less than 10 uM are considered active. The format is functional.
Data set [2] concerns the target Cytochrome P450 2C9 (Homo sapiens, UniProt P11712).
In data set [3] the target is T1, Cytochrome P450 1A2 (Homo sapiens, UniProt P05177).
T1 sequence (P05177 whole entry): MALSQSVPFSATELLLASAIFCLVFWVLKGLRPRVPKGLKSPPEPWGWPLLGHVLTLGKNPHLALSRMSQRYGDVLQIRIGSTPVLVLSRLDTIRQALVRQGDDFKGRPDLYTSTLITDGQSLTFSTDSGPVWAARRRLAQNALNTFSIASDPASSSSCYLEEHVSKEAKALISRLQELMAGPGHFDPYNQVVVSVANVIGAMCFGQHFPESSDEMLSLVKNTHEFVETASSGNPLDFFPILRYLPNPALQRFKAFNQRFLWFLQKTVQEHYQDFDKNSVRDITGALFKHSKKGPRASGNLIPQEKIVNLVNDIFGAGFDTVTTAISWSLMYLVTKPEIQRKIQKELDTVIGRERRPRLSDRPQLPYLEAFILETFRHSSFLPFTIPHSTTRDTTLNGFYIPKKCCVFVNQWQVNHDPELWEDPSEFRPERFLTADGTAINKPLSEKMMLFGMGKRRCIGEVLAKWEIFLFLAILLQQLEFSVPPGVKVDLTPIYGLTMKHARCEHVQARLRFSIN

Data set [4] has as its target T2, Rac GTPase-activating protein 1 (Homo sapiens, UniProt Q9H0H5).
T2 sequence (Q9H0H5 whole entry): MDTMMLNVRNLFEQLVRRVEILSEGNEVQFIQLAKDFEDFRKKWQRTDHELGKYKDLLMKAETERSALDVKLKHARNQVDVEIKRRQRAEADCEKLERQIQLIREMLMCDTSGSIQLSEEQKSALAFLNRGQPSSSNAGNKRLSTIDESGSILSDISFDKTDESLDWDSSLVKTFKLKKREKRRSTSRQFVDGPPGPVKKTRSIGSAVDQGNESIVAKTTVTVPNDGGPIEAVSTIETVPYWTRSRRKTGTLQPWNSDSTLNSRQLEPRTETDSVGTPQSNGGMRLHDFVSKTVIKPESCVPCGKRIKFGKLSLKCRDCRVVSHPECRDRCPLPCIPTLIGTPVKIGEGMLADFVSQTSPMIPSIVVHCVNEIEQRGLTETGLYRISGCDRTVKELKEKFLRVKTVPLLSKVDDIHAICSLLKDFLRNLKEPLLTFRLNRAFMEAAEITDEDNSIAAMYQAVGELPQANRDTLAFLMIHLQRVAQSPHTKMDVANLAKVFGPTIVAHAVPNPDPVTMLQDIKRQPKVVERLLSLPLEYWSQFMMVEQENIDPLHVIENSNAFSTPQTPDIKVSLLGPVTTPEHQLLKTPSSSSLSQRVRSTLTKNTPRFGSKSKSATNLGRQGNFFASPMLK
Nature of the data set: MgcRacGAP GTPase-activating activity inhibitors, confirmation, biochemical, ADP Hunter fluorescence, primary and confirmatory (AID 624330). The format is functional.

Data set [5] has as its target Cytochrome P450 2D6 (Homo sapiens, UniProt P10635).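 Further: CYP2D6 member of a cytochrome P450 panel assay.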
Data set [6] in a line: inhibitors of intracellular T. cruzi replication, confirmation, NIH3T3 host cells, beta-gal luminescence (AID 2044).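 Further: intracellular parasites grown in NIH/3T3 mouse fibroblasts as host cells; luminescent beta-galactosidase reporter signal from transgenic T. cruzi replicating inside host cells; inhibitors lower the luminescence signal.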 The format is functional, cell-based.
The nature of data set [7]: cytotoxicity toward NIH3T3 fibroblasts, dose response, counter-screen, cell-based, ATP luminescence, mouse fibroblasts (AID 2010).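 Further: cells exposed to compound for about 90 hours before reading.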 The format is functional. In general terms: A counterscreen serves to expose hits that act by an unwanted route or on another target.

Calls of active or inactive are those of the source. Some results are limits rather than exact numbers.

Chain of Cytochrome P450 2C19 (P33261 whole entry): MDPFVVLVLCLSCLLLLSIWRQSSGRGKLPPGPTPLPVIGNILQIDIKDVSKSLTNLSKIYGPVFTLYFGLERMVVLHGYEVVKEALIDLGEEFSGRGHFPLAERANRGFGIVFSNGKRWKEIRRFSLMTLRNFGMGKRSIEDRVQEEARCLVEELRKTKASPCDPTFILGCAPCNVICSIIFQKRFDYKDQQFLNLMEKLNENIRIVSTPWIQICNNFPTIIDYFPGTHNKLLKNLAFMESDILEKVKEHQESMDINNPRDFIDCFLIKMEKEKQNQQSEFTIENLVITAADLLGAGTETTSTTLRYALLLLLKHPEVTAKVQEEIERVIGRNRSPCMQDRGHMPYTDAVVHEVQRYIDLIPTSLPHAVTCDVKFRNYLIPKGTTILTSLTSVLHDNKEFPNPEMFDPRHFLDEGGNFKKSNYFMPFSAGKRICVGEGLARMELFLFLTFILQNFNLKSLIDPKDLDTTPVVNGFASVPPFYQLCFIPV
Chain of Cytochrome P450 2D6 (P10635 whole entry): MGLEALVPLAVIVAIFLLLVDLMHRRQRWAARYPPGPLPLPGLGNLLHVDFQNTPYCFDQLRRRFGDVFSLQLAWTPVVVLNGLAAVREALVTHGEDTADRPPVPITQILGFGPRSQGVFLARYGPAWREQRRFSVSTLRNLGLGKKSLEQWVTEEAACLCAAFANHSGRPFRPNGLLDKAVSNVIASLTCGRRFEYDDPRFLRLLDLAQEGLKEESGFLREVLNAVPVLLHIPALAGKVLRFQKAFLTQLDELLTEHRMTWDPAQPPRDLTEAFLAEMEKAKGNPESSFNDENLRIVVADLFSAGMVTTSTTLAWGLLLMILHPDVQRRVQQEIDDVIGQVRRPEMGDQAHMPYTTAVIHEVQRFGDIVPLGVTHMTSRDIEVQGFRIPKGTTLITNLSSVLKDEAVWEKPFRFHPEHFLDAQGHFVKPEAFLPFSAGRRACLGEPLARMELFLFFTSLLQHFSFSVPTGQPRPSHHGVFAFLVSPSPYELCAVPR
Chain of Cytochrome P450 2C9 (P11712 whole entry): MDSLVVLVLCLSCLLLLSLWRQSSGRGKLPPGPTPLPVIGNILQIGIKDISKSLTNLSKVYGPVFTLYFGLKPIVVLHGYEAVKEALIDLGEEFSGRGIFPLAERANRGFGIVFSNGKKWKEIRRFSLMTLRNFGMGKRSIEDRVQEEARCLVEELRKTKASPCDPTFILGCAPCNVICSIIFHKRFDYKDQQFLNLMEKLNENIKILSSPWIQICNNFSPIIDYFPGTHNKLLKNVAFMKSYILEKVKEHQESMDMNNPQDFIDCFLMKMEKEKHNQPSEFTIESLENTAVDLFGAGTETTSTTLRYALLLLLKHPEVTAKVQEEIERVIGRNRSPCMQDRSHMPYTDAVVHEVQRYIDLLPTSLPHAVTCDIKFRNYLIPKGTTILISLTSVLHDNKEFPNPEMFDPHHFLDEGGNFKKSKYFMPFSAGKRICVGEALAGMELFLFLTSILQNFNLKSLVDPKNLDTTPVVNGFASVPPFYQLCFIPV

What is called AC50 is the midpoint of the concentration-response curve, whichever way the signal moves. With `COc1cc(/C=N/NC(=O)c2cccnc2)ccc1OC(=O)c1ccco1`, the values for the AC50 in data set [1] (read-out: AC50) and in data set [2] were 8.91 µM (inconclusive) and 28.2 µM (inconclusive), respectively.
In the case of `Cc1ccc(C(=O)Oc2cc(C)n(C)c(=O)c2)cc1`, the values for the half-maximal activity concentration (AC50) in data set [3] and in data set [2] were 25.1 µM (inconclusive) and 11.2 µM (inconclusive), respectively.
For orientation: IC50 means the concentration at which inhibition is half-maximal. For the compound `COc1cc(/C=N/NC(=O)c2[nH]nc3c2CCc2ccccc2-3)ccc1O`, the half-inhibitory concentration (IC50) in data set [4] was 54.3 µM (active).
As for `Fc1ccc(-c2ccnc3nc(N4CCOCC4)nn23)cc1`, the half-maximal activity concentration (AC50) in data set [1] (read-out: AC50) is 3.55 µM (inconclusive).
On to `COc1cc(/C=N/NC(=O)C2CCN(CC(O)COCc3ccccc3)CC2)ccc1O` (centres undefined), for which, in data set [4], the 50% inhibitory concentration (IC50) is 31.5 µM (active).
`CC(C(=O)NCC(=O)Nc1ccc(F)c(F)c1F)N1CCN(c2ccc(O)cc2)CC1` (centres undefined): the IC50 in data set [4] is 42.5 µM (active).
`Cc1ccccc1-c1cncnc1NCCN1CCOCC1`: the AC50 in data set [5] was 39.8 µM (inconclusive); in data set [3], 15.8 µM (inconclusive).
As to `CCOc1ccccc1C1C(C(N)=O)=C(C)Nc2nc(-c3ccc(OC)cc3)nn21` (centres undefined), the half-maximal activity concentration (AC50) was 1 µM (inconclusive) in data set [5], 15.8 µM (inconclusive) in data set [3] and 15.8 µM (inconclusive) in data set [2].
For `CC(C)Oc1ccc(OCCn2c(S)nc3c(N)ncnc32)cc1`, the IC50 in data set [4] was 95.3 µM (active).
As to `c1ccc2c(Nc3ccncc3)nc(-c3ccoc3)nc2c1`, the concentration at half-maximal activity (AC50) in data set [5] was 15.8 µM (inconclusive).
As for `COc1ccccc1NC(=O)CN1CCN(CC(=O)Nc2ccc(OCc3ccccc3)cc2)CC1`, the AC50 in data set [5] was 20 µM (inconclusive); in data set [3], 10 µM (inconclusive).
Consider `Cc1ccc2c(CC(=O)OCc3cc(=O)n4c(n3)sc3ccccc34)coc2c1`, for which, in data set [5], the AC50 is 31.6 µM (inconclusive).
Regarding `COc1ccc(-n2ncc3c(NCC4CCCO4)ncnc32)cc1` (centres undefined), the figures for the half-maximal activity concentration (AC50) in data set [1] (read-out: AC50) and in data set [2] were 8.91 µM (inconclusive) and 12.6 µM (inconclusive), respectively.
In general, EC50 refers to the concentration giving half of the maximal effect. As for `COC(=O)C1=C(N)N(c2ccccc2C(F)(F)F)C2=C(C(=O)CCC2)C1c1ccc2c(c1)OCO2` (centres undefined), the EC50 in data set [6] was 1.24 µM (active); in data set [7], > 60 µM (not active). Also, the concentration at half-maximal activity (AC50) in data set [3] was 31.6 µM (inconclusive).
Consider `COC(=O)CSc1nnc(CNc2ccc(Cl)cc2)n1-c1ccccc1`, for which the concentration at half-maximal activity (AC50) in data set [2] was 22.4 µM (inconclusive).
For `Cc1ccccc1-c1cc(NCc2ccccc2)ncn1`, the AC50 in data set [5] is 31.6 µM (inconclusive).
On to `COC(=O)[C@@]1(Cc2ccccc2)[C@H]2c3cc(C(=O)N4CCCC4)n(Cc4ccccn4)c3C[C@H]2CN1C(=O)c1ccccc1`, for which the concentration at half-maximal activity (AC50) in data set [5] is 39.8 µM (inconclusive).
For the compound `c1ccc2c(c1)ncn2Cc1nnc2sc(-c3ccc4c(c3)OCO4)nn12`, the figures for the AC50 in data set [1] (read-out: AC50), in data set [5] and in data set [3] were 15.8 µM (inconclusive), 15.8 µM (inconclusive) and 1.12 µM (inconclusive), respectively.
As for `O=C(CSc1nc2ccccc2s1)NNC(=S)Nc1ccc(Br)cc1`, the AC50 in data set [5] is 3.55 µM (inconclusive).
On to `Cc1cccn2c(NCc3ccc4c(c3)OCO4)c(-c3ccc(O)cc3)nc12`, for which the IC50 in data set [4] was 68.7 µM (active).
Take `Cn1cccc1C(=O)N1CCC2(CC1)CCN(c1ccncc1)CC2`: the values for the AC50 in data set [5] and in data set [3] were 25.1 µM (inconclusive) and 15.8 µM (inconclusive), respectively.
`Nc1nc(N)c(CCCCc2ccccc2)c(N)n1`: in data set [5], the half-maximal activity concentration (AC50) is 3.98 µM (inconclusive).
As for `CN(C)C(=O)c1ccc(-c2nc(NCc3ccccc3)c3ccccc3n2)cc1`, the half-maximal activity concentration (AC50) in data set [1] (read-out: AC50) is 25.1 µM (inconclusive); in data set [5], 39.8 µM (inconclusive).
With `Cn1cc(C(=O)c2cccc(Cl)c2Cl)cc1C(=O)O`, the AC50 in data set [2] was 31.6 µM (inconclusive).
Turning to `Cc1cccn2c(S)nnc12`, in data set [4], the IC50 was 17.2 µM (active).
Consider `O=C(NCc1ccccc1)/C(=C\c1ccc(O)cc1)NC(=O)c1ccco1`, for which the concentration for half-maximal inhibition (IC50) in data set [4] was 141 µM (active).
For `Cn1c(=O)c(C(=O)CN2CCOCC2)c(N)n(Cc2ccccc2)c1=O`, the figures for the concentration at half-maximal activity (AC50) in data set [1] (read-out: AC50) and in data set [5] were 39.8 µM (inconclusive) and 7.94 µM (inconclusive), respectively.
Consider `COc1ccccc1N1CCN(CCN(C(=O)C2CCCCC2)c2ccccn2)CC1` [WAY-100,635], for which, in data set [5], the AC50 is 31.6 µM (inconclusive).
For `COc1ccccc1CNc1cc(-c2cccnc2)ncn1`, in data set [1] (read-out: AC50), the concentration at half-maximal activity (AC50) was 15.8 µM (inconclusive).
Same read-out and setting: the figure for `O=C(c1cnccn1)N1CCC2(CCCN(c3cccc(-c4ccccc4)c3)C2)CC1` is 7.94 µM (inconclusive).
For `C[C@@H](C(=O)Nc1ccc2ccccc2c1)[C@@H]1C[C@@]1(C)[C@@H](NS(=O)(=O)c1ccc(-c2ccccc2)cc1)c1ccccc1`, the AC50 in data set [3] was 12.6 µM (inconclusive).
On the same count and under the same terms, under `COc1ccc(Cc2nnc(NC(=O)c3ccco3)s2)cc1` stands 11.2 µM (inconclusive).
For the compound `Cc1cc(OCc2nc3ccccc3s2)ccc1N`, the IC50 in data set [4] was 60.7 µM (active).
Still for that read-out and setting: the figure for `COc1cc(CNCc2cc(OC)c(OC)c(OC)c2)cc(OC)c1` is 203 µM (active).
For `CN(C)c1ccc(-c2cncnc2-n2ccnc2)cc1`, in data set [5], the half-maximal activity concentration (AC50) was 39.8 µM (inconclusive).
As for `COc1cccc(/C=N/NC(=O)c2c(-c3ccccc3)noc2C)c1`, the half-maximal activity concentration (AC50) in data set [5] was 17.8 µM (inconclusive).
Take `CN(CCCCCCN(C)Cc1ccccc1O)Cc1ccccc1O`: the 50% inhibitory concentration (IC50) in data set [4] is 73.6 µM (active).
For `O=c1cc(-c2ccc(O)c(O)c2)oc2cc(O)c([C@@H]3O[C@H](CO)[C@@H](O)[C@H](O)[C@H]3O)c(O)c12` [ISOORIENTIN], the IC50 in data set [4] was 40.9 µM (active).
Regarding `O=C(c1ccncc1)N1CCC2(CC1)CCN(c1cccc(-c3ccccc3)c1)CC2`, the figures for the half-maximal activity concentration (AC50) in data set [3] and in data set [2] were 20 µM (inconclusive) and 12.6 µM (inconclusive), respectively.
In the case of `COc1ccc(NCc2nnc(SCc3ccccc3)n2-c2ccc(OC)cc2)cc1`, the values for the AC50 in data set [3] and in data set [2] were 17.8 µM (inconclusive) and 12.6 µM (inconclusive), respectively.
With `Cc1noc(C)c1-c1cc(N(C)Cc2ccco2)ncn1`, in data set [1] (read-out: AC50), the AC50 was 15.8 µM (inconclusive).
On to `CN1CCN(C(=O)C(C(=O)c2ccc(F)cc2)n2ccccc2=O)CC1` (centres undefined), for which, in data set [1], the half-maximal activity concentration (AC50) entry is reported as “inconclusive”.
In the case of `O=C(ON=C1CCN(S(=O)(=O)c2ccccc2)CC1)c1ccccc1`, the concentration at half-maximal activity (AC50) in data set [2] was 31.6 µM (inconclusive).
Turning to `COc1cc(-c2nc3cnccn3c2Nc2c(C)cccc2C)ccc1O`, in data set [4], the IC50 was 46.4 µM (active).
Turning to `Cc1cc(C)cc(-n2c(C)cc(C=C(C#N)C#N)c2C)c1`, the half-maximal activity concentration (AC50) in data set [2] was 2.51 µM (inconclusive).
For the compound `COc1ccc(C(=O)NC2CC3CCCC(C2)N3CC(C)C)cc1OC` (centres undefined), in data set [2], the AC50 is 22.4 µM (inconclusive).
In the case of `O=C(CN1CCN(C2CCCCC2)CC1)NCCC1=CCCCC1`, the AC50 in data set [3] was 20 µM (inconclusive).
As for `COc1ccc(-c2cn3c(C)c(C(=O)NCCN4CCOCC4)sc3n2)cc1`, in data set [3], the AC50 is 0.126 µM (inconclusive).
